Results as given in US9974767B2, “Statins in the treatment of muscular dystrophies and myopathies” (University of Washington, priority 2014, dated 2018).

Assays:
Type in all cases: in vivo, mouse
[1] = system: Phospholamban (PLB), SERCA2a; experiment: SERCA2a, PLB S-16 and total PLB expression in cardiac muscle, immunoblotting; conditions: old mdx mice, vs mdx Con
Text: Aberrant Ca2+ handling in dystrophic cardiomyocytes leads to impaired relaxation, which is a major cause of diastolic dysfunction. […] Phospholamban (PLB) is a major inhibitor of SERCA activity and can therefore depress cardiac function.

LC3A/LC3B = experiment: LC3A and LC3B expression in diaphragm (autophagy), Western blot; conditions: old mdx Sim vs mdx Con
Text: Autophagy is an important cellular pathway for degrading damaged proteins, organelles and protein aggregates, which are then recycled by the cell for energy use. Impaired autophagy can trigger cell death and in skeletal muscle, proper regulation of autophagy is essential for normal cellular and physiological function. Both mdx and DMD muscles show evidence of reduced autophagy and treatment of mdx mice with a low protein diet triggered autophagy, which reduced inflammation and fibrosis and enhanced muscle function. […] A key protein marker of autophagic flux is the microtubule-associated protein 1A/1B light chain 3, which has a cytosolic form (LC3A) and a lapidated form (LC3B). An increased level of LC3B relative to LC3A is indicative of enhanced autophagic flux.
Tibialis anterior (TA) muscle function was measured in situ. Mice were anaesthetized with an intraperitoneal injection of Avertin (625 mg/kg) and placed on a heated metal platform (37° C.). The distal TA tendon was dissected free and sutured to the lever arm of the force and length control system (305C-LR, Aurora Scientific). […] Fatigue recovery was measured every 2 min up to 10 min post-fatigue. […] Membranes were incubated with enhanced chemiluminescence (ECL) reagent (Amersham) and bands were detected by the FluorChem M, imaging system (Protein Simple).

H2O2 (ROS) = experiment: H2O2 levels in diaphragm muscle homogenates, amplex red assay; conditions: old mdx mice
Text: FIG. 14A. Western blot (top) showing the levels of the autophagy proteins LC3A (upper band) and LC3B (lower band) for mdx Con and mdx Sim. GAPDH is shown as a loading control. Pooled data (bottom) for LC3A and LC3B. **P<0.01 compared to mdx Con. FIG. 14B. Hydrogen peroxide (H2O2) levels in diaphragm muscle homogenates, as quantified with a fluorescent amplex red assay. *P<0.05 compared to mdx Con. FIG. 14C. Atrogin-1 mRNA levels in quadriceps muscles were quantified by qPCR and normalized to the internal control (HPRT). *P<0.05 compared to WT Con. **P<0.01 compared to WT Con.
To further explore this idea, we also measured the levels of the ROS (H2O2) in diaphragm muscle homogenates. […] This highlights important differences between dystrophic muscle, where statins reduce oxidative stress derived from NOX2, and normal muscle susceptible to statin myopathy, where mitochondrial ROS increases oxidative stress.

CCC(C)(C)C(=O)O[C@H]1C[C@@H](C)C=C2C=C[C@H](C)[C@H](CC[C@@H]3C[C@@H](O)CC(=O)O3)[C@H]21 [Simvastatin, simvastatin]
increase of PLB S-16 [1]: 55%
increase of LC3B (LC3A/LC3B): 40%
less H2O2 compared to mdx Con (H2O2 (ROS)): 30%
